Data on 4 substances can be found in PMC4351204, “Amyloid Precursor Protein Mediated Changes in Intestinal Epithelial Phenotype In Vitro” (PLoS ONE, 2015).

Data set [1] concerns Caco-2 cells. Description: Western blotting of protein levels in stimulated Caco-2 cells. The conditions noted are these: western blot, 3 samples. It counts as cell-based, human. As to the method: Following stimulation, cells were lysed using ice cold radioimmunoprecipitation assay (RIPA) buffer (20mM Tris, pH 7.4, 150mM NaCl, 1mM Na3VO4, 10mM NaF, 1mM EDTA, 1mM EGTA, 0.2mM phenylmethylsulfonyl fluoride, 1% Triton, 0.1% SDS, and 0.5% deoxycholate) with protease inhibitors (AEBSF 1mM, Aprotinin 0.8μM, Leupeptin 21μM, Bestatin 36μM, Pepstatin A 15μM, E-64 14μM) and 50U/mL DNAse1(Amresco Inc, Solon, OH, USA). To remove insoluble material cell lysates were sonicated and centrifuged (14,000 rpm, 4°C, 10 min). The Bradford method was used to quantify protein concentrations. Proteins were resolved by 7 or 10% sodium dodecyl sulfate-polyacrylamide gel electrophoresis (SDS-PAGE) and transferred to polyvinylidene difluoride membranes (PVDF) for western blotting using anti-APP (Y188), CD36, occludin, LFABP, FATP4, pSrc, cSrc, and GAPDH (loading control) antibodies. Antibody binding was detected with enhanced chemiluminescence (GE Healthcare, Piscataway, NJ). In some instances, blots were stripped in […], 10 min, 25°C, for reprobing. Western blots were quantified using Adobe Photoshop software. Optical densities of bands were normalized against their respective loading controls and averaged (+/-SD).
Fig 5 Aβ, APP, and CD36 stimulations selectively altered protein levels in Caco-2 cells.
A general note: In western blotting, separated proteins are transferred to a membrane and probed.

Data set [2] deals with Caco-2 cells. Description: Cytokine ELISAs (IL-8, MCP-1, MDC, IL-6, TNFα) of media from stimulated Caco-2 cells. It counts as cell-based, human. The settings on record: ELISA of media, normalized to protein, 6 samples. For orientation: An ELISA detects its analyte on a solid surface through an enzyme-linked reagent.
For data set [3], the system named is Caco-2 cells. As to the kind of experiment: Cholesterol Uptake Cell-Based Assay (NBD Cholesterol). Also on record: species or system human. The settings on record: 40 min; for Cholesterol uptake: 8 samples. As to the method:
Cholesterol was measured following the protocol provided in the Cholesterol Uptake Cell-Based Assay Kit from Cayman Chemical Company (Ann Arbor, Michigan USA). […] At the end of treatment, the plates were aspirated and cell-based assay buffer was added to each well and NBD Cholesterol uptake was quantified using a fluorescent plate reader (480 nm excitation and 520 nm emission).
Fig 4 Aβ and 22C11 agonist decreased cholesterol uptake whereas the sAPP-derived peptide and SM-ϕ stimulated increased cholesterol uptake by Caco-2 cells. […] Representative data from 3 independent experiments are shown.

For a further data set, the system named is HepG2 hepatocyte line. Also on record: method as in PMID 8898096. The conditions noted are these: Aβ 1–40 treatment of human HepG2 hepatocyte line; cited from earlier work.
The subject of data set [4] is Caco-2 cells. Description: Aβ uptake assay with FITC labeled Aβ 1–40. It counts as in vitro ADME, human. The protocol:
FITC labeled Aβ 1–40 was prepared according to the manufacturer’s protocol (rPeptide, Bogart, GA, USA). 500nM of the peptide was added to confluent cells in serum free DMEM/F12 for 4 hours in the absence or presence of 10ng/mL LPS. The media was then removed and extracellular peptide signal was quenched by rinsing cells with 0.25% trypan blue dissolved in PBS. The trypan blue incubation served to quench FITC-Aβ signal from any peptide that was associated with the extracellular plasma membrane surface or with the tissue culture plastic of the wells. Intracellular Aβ signal was then quantified using a fluorescent plate reader (480 nm excitation and 520 nm emission).
(§1) Fig 2 Caco-2 cells secreted and took up Aβ. […] The cells were rinsed with trypan blue to quench extracellular signal from FITC-Aβ on the cell surface or surface of the tissue culture dish and intracellular Aβ fluorescence was measured with a fluorescent plate reader (480 nm excitation and 520 nm emission) (B).

For data set [5], the system named is Caco-2 cells. Description: Aβ 1–40 and Aβ 1–42 ELISA of media from stimulated Caco-2 cells (Aβ secretion). It counts as cell-based, human. The settings on record: overnight stimulation in serum free DMEM/F12; 10ng/mL LPS or 1μg/mL 22C11; 3 experiments in a replicate of 8. As to the method:
Caco-2 cells were purchased from ATCC (Manassas, VA, USA). These are an epithelial-like cell line derived from a colorectal adenocarcinoma from a person. Caco-2 cells were maintained in DMEM/F12 (Gibco, Life Technologies, Grand Island, NY, USA) supplemented with 10% heat inactivated fetal bovine serum (FBS), 5% donor horse serum (Serum Source International, Charlotte, NC, USA) and antibiotics (0.05mg penicillin/0.05mg streptomycin/0.01mg neomycin/mL) (Sigma-Aldrich, St. Louis, MO, USA). Caco-2 cells were plated and allowed to grow to confluency before removing supplemented media and replacing with serum free DMEM/F12 with or without treatments. Following stimulation, Caco-2 cells were used for ELISA, Aβ uptake, cholesterol assays, immunoprecipitation, and western blot analysis.
The cells were lysed using ice cold RIPA buffer with protease inhibitors and 50U/mL DNAse1. […] The Bradford method was used to quantify protein concentrations for normalization of Aβ in the media and lysates were used for western blotting.
as §1

Details of data set [6]: method as in PMID 12897403. The settings on record: in vivo, iv; cited from earlier work.

Take “Aβ 1–40: amyloid β 1–40 peptide purchased from rPeptide”: the “protein levels of other proteins examined (besides occludin)” value in the data set with Caco-2 cells [1] (1μM Aβ 1–40 overnight, compared to control untreated cells) is “no effect”. The occludin protein levels result in the data set with Caco-2 cells [1] (overnight stimulation, 1μg/mL antibody or 1μM Aβ 1–40) is listed as “decreased”. Moreover, the IL-6 cytokine secretion entry with Caco-2 cells [2] (1μM Aβ 1–40, 24h) is reported as “increased”. Moreover, the Cholesterol uptake entry in the data set with Caco-2 cells [3] (100nM, 1μM and 5μM Aβ 1–40 (all three concentrations), 20μg/ml NBD Cholesterol) is “decreased”. Also, the “Cholesterol uptake, concentration comparison” value with Caco-2 cells [3] (1μM Aβ 1–40 compared with 100nM and 5μM) is on record as “most dramatic effect”. Also, the “steady state levels of intracellular cholesterol, cholesterol esters, phospholipids, and triacylglycerol” value in the data set on HepG2 hepatocyte line is given as “attenuate”.

For the substance “fluorescently labeled Aβ 1–40: FITC labeled Aβ 1–40 prepared according to the manufacturer's protocol (rPeptide)”, in the data set on Caco-2 cells [4] (500nM FITC Aβ 1–40, 4 hr, confluent Caco-2, serum free DMEM/F12, extracellular signal quenched with 0.25% trypan blue, fluorescent plate reader 480/520 nm, 3 experiments in a replicate of 8), the “Uptake of fluorescently labeled Aβ 1–40 into cells (intracellular fluorescence)” value is listed as “could take up Aβ peptide”.

Take lipopolysaccharide [LPS]: in the data set with Caco-2 cells [4] (10ng/mL LPS present with 500nM FITC Aβ 1–40, 4 hr), the “Effect on uptake of FITC Aβ 1–40 by Caco-2 cells” value is “not affected”. In addition, in the data set with Caco-2 cells [2] (10ng/mL LPS, 24h), the IL-8 cytokine secretion result is given as “increased” and the TNFα cytokine secretion entry was “increased”. Moreover, the Cholesterol uptake result with Caco-2 cells [3] (10ng/mL LPS, 20μg/ml NBD Cholesterol in glucose free HBSS) is “increased”. Also, the “Aβ secretion (Aβ 1–40 and Aβ 1–42 ELISA)” value in the data set on Caco-2 cells [5] is listed as “higher concentrations of Aβ 1–40 compared to Aβ 1–42 released”.

As to “radiolabeled Aβ 1–40: radiolabeled Aβ 1–40 associated with chylomicron-like particles, literature study”, the transport into organs entry in data set [6] is “can be transported into diverse organs including adipose tissue and brain”.
